Tests used:
Assay type in all cases: functional
OVCAR-5 [1] = test: Growth inhibition of human OVCAR-5 cells assessed as cell growth at 1 uM incubated for 48 hrs by sulforhodamine B assay relative to control; settings: read-out: Activity
PC-3 = test: Growth inhibition of human PC-3 cells incubated for 48 hrs by sulforhodamine B assay
OVCAR-5 [2] = test: Growth inhibition of human OVCAR-5 cells incubated for 48 hrs by sulforhodamine B assay
SF-268 [3] = test: Growth inhibition of human SF-268 cells incubated for 48 hrs by sulforhodamine B assay
ACHN [4] = test: Growth inhibition of human ACHN cells incubated for 48 hrs by sulforhodamine B assay
RPMI-8226 = test: Growth inhibition of human RPMI-8226 cells assessed as cell growth at 0.1 uM incubated for 48 hrs by sulforhodamine B assay relative to control; settings: read-out: Activity
UACC-62 = test: Growth inhibition of human UACC-62 cells assessed as cell growth at 0.01 uM incubated for 48 hrs by sulforhodamine B assay relative to control; settings: read-out: Activity
MDA-MB-231 = test: Growth inhibition of human MDA-MB-231 cells assessed as cell growth at 0.01 uM incubated for 48 hrs by sulforhodamine B assay relative to control; settings: read-out: Activity
ACHN [5] = test: Growth inhibition of human ACHN cells assessed as cell growth at 100 uM incubated for 48 hrs by sulforhodamine B assay relative to control; settings: read-out: Activity
IGROV-1 [6] = test: Growth inhibition of human IGROV-1 cells incubated for 48 hrs by sulforhodamine B assay
HCC 2998 [7] = test: Growth inhibition of human HCC 2998 cells assessed as cell growth at 1 uM incubated for 48 hrs by sulforhodamine B assay relative to control; settings: read-out: Activity
CAKI-1 [8] = test: Growth inhibition of human CAKI-1 cells assessed as cell growth at 100 uM incubated for 48 hrs by sulforhodamine B assay relative to control; settings: read-out: Activity
HOP-62 [9] = test: Growth inhibition of human HOP-62 cells assessed as cell growth at 1 uM incubated for 48 hrs by sulforhodamine B assay relative to control; settings: read-out: Activity
OVCAR-8 = test: Growth inhibition of human OVCAR-8 cells assessed as cell growth at 0.1 uM incubated for 48 hrs by sulforhodamine B assay relative to control; settings: read-out: Activity
U-251 = test: Growth inhibition of human U-251 cells assessed as cell growth at 100 uM incubated for 48 hrs by sulforhodamine B assay relative to control; settings: read-out: Activity
HCC 2998 [10] = test: Growth inhibition of human HCC 2998 cells incubated for 48 hrs by sulforhodamine B assay
HOP-62 [11] = test: Growth inhibition of human HOP-62 cells assessed as cell growth at 100 uM incubated for 48 hrs by sulforhodamine B assay relative to control; settings: read-out: Activity
UACC-257 = test: Growth inhibition of human UACC-257 cells assessed as cell growth at 100 uM incubated for 48 hrs by sulforhodamine B assay relative to control; settings: read-out: Activity
M14 = test: Growth inhibition of human M14 cells assessed as cell growth at 0.1 uM incubated for 48 hrs by sulforhodamine B assay relative to control; settings: read-out: Activity
NCI/ADR-RES = test: Growth inhibition of human NCI/ADR-RES cells assessed as cell growth at 0.1 uM incubated for 48 hrs by sulforhodamine B assay relative to control; settings: read-out: Activity
BT-549 = test: Growth inhibition of human BT-549 cells assessed as cell growth at 0.01 uM incubated for 48 hrs by sulforhodamine B assay relative to control; settings: read-out: Activity
COLO 205 = test: Growth inhibition of human COLO 205 cells assessed as cell growth at 0.01 uM incubated for 48 hrs by sulforhodamine B assay relative to control; settings: read-out: Activity
Hs-578T = test: Growth inhibition of human Hs-578T cells incubated for 48 hrs by sulforhodamine B assay
NCI-H522 = test: Growth inhibition of human NCI-H522 cells assessed as cell growth at 0.01 uM incubated for 48 hrs by sulforhodamine B assay relative to control; settings: read-out: Activity
NCI-H23 = test: Growth inhibition of human NCI-H23 cells assessed as cell growth at 100 uM incubated for 48 hrs by sulforhodamine B assay relative to control; settings: read-out: Activity
CAKI-1 [12] = test: Growth inhibition of human CAKI-1 cells incubated for 48 hrs by sulforhodamine B assay
OVCAR-5 [13] = test: Growth inhibition of human OVCAR-5 cells assessed as cell growth at 0.01 uM incubated for 48 hrs by sulforhodamine B assay relative to control; settings: read-out: Activity
CCRF-CEM [14] = test: Growth inhibition of human CCRF-CEM cells assessed as cell growth at 0.01 uM incubated for 48 hrs by sulforhodamine B assay relative to control; settings: read-out: Activity
MCF7 = test: Growth inhibition of human MCF7 cells assessed as cell growth at 1 uM incubated for 48 hrs by sulforhodamine B assay relative to control; settings: read-out: Activity
IGROV-1 [15] = test: Growth inhibition of human IGROV-1 cells assessed as cell growth at 0.1 uM incubated for 48 hrs by sulforhodamine B assay relative to control; settings: read-out: Activity
CCRF-CEM [16] = test: Growth inhibition of human CCRF-CEM cells assessed as cell growth at 100 uM incubated for 48 hrs by sulforhodamine B assay relative to control; settings: read-out: Activity
SK-MEL-28 = test: Growth inhibition of human SK-MEL-28 cells assessed as cell growth at 0.1 uM incubated for 48 hrs by sulforhodamine B assay relative to control; settings: read-out: Activity
SF-268 [17] = test: Growth inhibition of human SF-268 cells assessed as cell growth at 1 uM incubated for 48 hrs by sulforhodamine B assay relative to control; settings: read-out: Activity
[18] = read-out: LC50 (the source's name)
[19] = read-out: pLC50 (the source's name) (converted)

CC(=O)Nc1cc(CO[Si](C)(C)C(C)(C)C)cc(NC(=O)c2ccc(C(=O)Nc3cccc(NC(=O)CCCN(C)C)c3)cc2)c1
growth at 1 µM (OVCAR-5 [1]): 89% | GI50 (PC-3; read-out: GI50): > 75 µM | CC50 (PC-3; [18]): > 75 µM | TGI (PC-3; read-out: TGI): > 75 µM | GI50 (PC-3; read-out: pGI50 (converted)): > 75.9 µM | CC50 (PC-3; [19]): > 75.9 µM | TGI (PC-3; read-out: pTGI): > 75.9 µM | GI50 (OVCAR-5 [2]; read-out: GI50): > 75 µM | LC50 (OVCAR-5 [2]; read-out: LC50): > 75 µM | TGI (OVCAR-5 [2]; read-out: TGI): > 75 µM | GI50 (OVCAR-5 [2]; read-out: pGI50 (converted)): > 75.9 µM | LC50 (OVCAR-5 [2]; read-out: pLC50 (converted)): > 75.9 µM | TGI (OVCAR-5 [2]; read-out: pTGI): > 75.9 µM | GI50 (SF-268 [3]; read-out: GI50): > 75 µM | LC50 (SF-268 [3]; read-out: LC50): > 75 µM | TGI (SF-268 [3]; read-out: TGI): > 75 µM | GI50 (SF-268 [3]; read-out: pGI50 (converted)): > 75.9 µM | LC50 (SF-268 [3]; read-out: pLC50 (converted)): > 75.9 µM | TGI (SF-268 [3]; read-out: pTGI): > 75.9 µM | GI50 (ACHN [4]; read-out: GI50): > 75 µM | CC50 (ACHN [4]; [18]): > 75 µM | TGI (ACHN [4]; read-out: TGI): > 75 µM | GI50 (ACHN [4]; read-out: pGI50 (converted)): > 75.9 µM | CC50 (ACHN [4]; [19]): > 75.9 µM | TGI (ACHN [4]; read-out: pTGI): > 75.9 µM | growth at 0.1 µM (RPMI-8226): 101% | growth at 0.01 µM (UACC-62): 96% | growth at 0.01 µM (MDA-MB-231): 102% | growth at 100 µM (ACHN [5]): 84% | GI50 (IGROV-1 [6]; read-out: GI50): > 75 µM | CC50 (IGROV-1 [6]; [18]): > 75 µM | TGI (IGROV-1 [6]; read-out: TGI): > 75 µM | GI50 (IGROV-1 [6]; read-out: pGI50 (converted)): > 75.9 µM | CC50 (IGROV-1 [6]; [19]): > 75.9 µM | TGI (IGROV-1 [6]; read-out: pTGI): > 75.9 µM | growth at 1 µM (HCC 2998 [7]): 94% | growth at 100 µM (CAKI-1 [8]): 77% | growth at 1 µM (HOP-62 [9]): 97% | growth at 0.1 µM (OVCAR-8): 97% | growth at 100 µM (U-251): 89% | GI50 (HCC 2998 [10]; read-out: GI50): > 75 µM | CC50 (HCC 2998 [10]; [18]): > 75 µM | TGI (HCC 2998 [10]; read-out: TGI): > 75 µM | GI50 (HCC 2998 [10]; read-out: pGI50 (converted)): > 75.9 µM | CC50 (HCC 2998 [10]; [19]): > 75.9 µM | TGI (HCC 2998 [10]; read-out: pTGI): > 75.9 µM | growth at 100 µM (HOP-62 [11]): 87% | growth at 100 µM (UACC-257): 81% | growth at 0.1 µM (M14): 95% | growth at 0.1 µM (NCI/ADR-RES): 97% | growth at 0.01 µM (BT-549): 95% | growth at 0.01 µM (COLO 205): 101% | GI50 (Hs-578T; read-out: GI50): > 75 µM | CC50 (Hs-578T; [18]): > 75 µM | TGI (Hs-578T; read-out: TGI): > 75 µM | GI50 (Hs-578T; read-out: pGI50 (converted)): > 75.9 µM | CC50 (Hs-578T; [19]): > 75.9 µM | TGI (Hs-578T; read-out: pTGI): > 75.9 µM | growth at 0.01 µM (NCI-H522): 89% | growth at 100 µM (NCI-H23): 84% | GI50 (CAKI-1 [12]; read-out: GI50): > 75 µM | CC50 (CAKI-1 [12]; [18]): > 75 µM | TGI (CAKI-1 [12]; read-out: TGI): > 75 µM | GI50 (CAKI-1 [12]; read-out: pGI50 (converted)): > 75.9 µM | CC50 (CAKI-1 [12]; [19]): > 75.9 µM | TGI (CAKI-1 [12]; read-out: pTGI): > 75.9 µM | growth at 0.01 µM (OVCAR-5 [13]): 93% | growth at 0.01 µM (CCRF-CEM [14]): 97% | growth at 1 µM (MCF7): 101% | growth at 0.1 µM (IGROV-1 [15]): 103% | growth at 100 µM (CCRF-CEM [16]): 112% | growth at 0.1 µM (SK-MEL-28): 95% | growth at 1 µM (SF-268 [17]): 101%

Source: ChEMBL document CHEMBL4715697, “Synthesis and biological activity of benzamide DNA minor groove binders” (2016)
